We go through 4 compounds from patent US12485170B2, “Lipid composition targeting antigen-presenting cells and use thereof” (Beijing Youcare Kechuang Pharmaceutical Technology Co., Ltd., priority 2024, dated 2025).

This data set is described as follows: Solubility of anionic lipids in ethanol during preparation.

Entries after “also recorded” stand apart in the source; their conditions may differ. Like-named read-outs stand apart in the source and are kept apart here.

Procedure: General method 1: The components of the lipid composition (including permanently anionic lipids, permanently cationic lipids, and/or neutral lipids, or combinations thereof) were dissolved in ethanol according to the specified molar ratio to prepare an ethanol lipid complex solution (with a total lipid concentration of 100 to 600 mM). The ethanol lipid complex solution was rapidly added to RNase-free water using the ethanol injection method. After stirring for 30 minutes, the resulting lipid composition solution was filtered through a polycarbonate membrane with a pore size of 100 nm to 400 nm.
General method 2: Permanently anionic lipids or compounds were dissolved in RNase-free water to obtain RNase-free water containing permanently anionic lipids. Permanently cationic lipids and neutral lipids were dissolved in ethanol according to the specified molar ratio to prepare an ethanol lipid complex solution (with a total lipid concentration of 100 to 600 mM). The ethanol lipid complex solution was rapidly added to the RNase-free water containing permanently anionic lipids using the ethanol injection method. After stirring for 30 minutes, the resulting lipid composition solution was filtered through a polycarbonate membrane with a pore size of 100 nm to 400 nm.
The molar ratio of permanently anionic lipids, permanently cationic lipid DOTMA, and neutral lipid DOPE in the different complexes was controlled at 1:2:1, and the particle size and PDI were measured.

As to `CC(C)=CCC/C(C)=C/CC/C(C)=C/CO[P@@](=O)(O)OP(=O)(O)O` (stereo in doubt) [Farnesyl pyrophosphate], the “Notes: solubility of the anionic lipid in ethanol” value (shortened to “Notes: solubility”) is given as “Insoluble in ethanol,”. Also, the “Notes: solubility” value (listed as farnesyl pyrophosphate) is “lower solubility in ethanol”.
On to `CCCCCCCC/C=C\CCCCCCCC(=O)OC[C@H](COP(=O)([O-])OCCNC(C)=O)OC(=O)CCCCCCC/C=C\CCCCCCCC.[Na+]` [ADOPE, 2-acetamidoethyl ((R)-2,3-bis(oleoyloxy)propyl) phosphate sodium salt], for which the “Notes: solubility” value (phosphate sodium salt) is recorded as “good solubility in ethanol; also recorded: Soluble in ethanol,”.
As for `CCCCCCCC/C=C\CCCCCCCC(=O)O` [Oleic acid], the “Notes: solubility” value is “Soluble in ethanol,”.
Turning to `COC1C(OP(=O)(O)OC[C@H]2O[C@@H](n3cnc4c(=O)[nH]c(N)nc43)C(O)C2O)[C@@H](COP(=O)(O)O)O[C@H]1n1cnc2c(N)ncnc21` (stereo partly drawn) [pA(2′-OMe)mpG, ((2R,3S,4S,5R)-3-(((((2R,3R,4S,5R)-5-(2-amino-6-oxo-1,6-dihydro-9H-purin-9-yl)-3,4-dihydroxytetrahydrofuran-2-yl)methoxy) (hydroxy)phosphoryl)oxy)-5-(6-amino-9H-purin-9-yl)-4-methoxytetrahydrofuran-2-yl) methyl dihydrogen phosphate], the “Notes: solubility” value is on record as “Insoluble in ethanol,”. In addition, for the setting “listed as pA (2′-OMe) mpG”, the “Notes: solubility” value is listed as “lower solubility in ethanol”.
